Test results taken from patent US20030162796A1, “Pharmaceutical composition for the treatment of disorders of non-human mammals” (priority 2001, published 2003).
Read-outs that look alike come from different tables or passages of the source.

What was measured:
SLU-1 cells = test: 3H-Thymidin proliferation assay, SLU-1; assay type: cell-based, canine; conditions: inhibitor 5 nM-10000 nM
Procedure: (§1) The ability of BIBX1382 to inhibit the proliferation of cells in culture was tested with a ^3H-Thymidin proliferation assays. This assay was performed with three tumor cell lines (SLU-1, SLU-4, SH1b) and a normal cell line (CRL-6234).
(§2) A pilot experiment with 500 to 12.000 cells per well in a 96-well plate in the presence of different concentrations of FCS (0% to 10%) was performed. After different proliferation times (24 h, 48 h, 72 h and 96 h), 10 μl ^3H-Thymidin (1:100 in PBS) were added, after incubation the plate was frozen, then thawed and the cells were harvested. The ^3H-Thymidin incorporation rate was determined. […] To determine a possible growth inhibitory effect of the inhibitor BIBX1382 on the cell lines, different concentrations (5 nM-10000 nM) of the inhibitor were used. Again ^3H-Thymidin was added, after incubation the plate was frozen, then thawed and the cells were harvested. The ^3H-Thymidin incorporation rate was determined in dependance of the concentration of inhibitor.

SLU-4 cells = test: 3H-Thymidin proliferation assay, SLU-4; assay type: cell-based, canine; conditions: inhibitor 5 nM-10000 nM
Procedure: as §1, §2

CRL-6234 cells = test: 3H-Thymidin proliferation assay, CRL-6234 (normal cell line); assay type: cell-based, canine
Procedure: as §1, §2

SH1b cells = test: 3H-Thymidin proliferation assay, SH1b; assay type: cell-based, canine; conditions: FIG. 3
Procedure: as §1, §2
The ^3H-Thymidin proliferation assay was also done with the tumor cell line SH1b.

SLU-1 tumors = test: Effect on tumor growth in nude mice (SLU-1 subcutaneous xenograft); assay type: in vivo
Procedure: The cell line SLU-1 was cultured as described in Example 2. For use in tumor experiments, cells were trypsinised, washed and suspended in PBS+5% FCS at 10^7 cells/ml. 2×10^6 SLU-1 cells were injected into 40 nude mice (5-10 week-old female Hsd:NMRI-nu/nu purchased from Harlan, The Netherlands for the in vivo experiment with BIBX1382.
(§3) When tumors were established and had reached diameters of approximately 5 mm as measured with a calliper, mice were randomly distributed into groups of 10 animals so that each tumor size was equally represented in each treatment group. The time span between cell injection and randomisation/start of treatment was sixteen days. Starting ten days after randomisation, mice were treated once daily (at 24 hour intervals) with various doses of the test compound. Administration was intragastral using a gavage needle (Infusionskanule Olive A, Acufirm, No. 14 64 11-1). Therefore, the compound was suspended in 2.5% aqueous HP-beta-CD (hydroxy-propyl-beta-cyclodextrine)/1% aqueous Natrosol (hydroxyethylcellulose). Control mice received the vehicle only. The administration volume was 2.5 to 10 ml per kg mouse body weight. The solutions were proportioned and kept at −20° C.
(§4) The low dose group received 25 mg/kg/day (day 10-22) and 50 mg/kg/day (day 23-46) of BIBX1382; whereas the high dose group received 50 mg/kg/day (day 10-22), 70 mg/kg/day (day 23-30) and 100 mg/kg/day (day 31-46) of BIBX1382. The control group was treated with vehicle only.
Tumors were measured three times a week (Monday, Wednesday and Friday) with a calliper. Volumes [in mm^3] were then calculated according to the formula (tumor volume=length*diameter^2*π/6). To monitor side effects of treatment, mice were inspected daily for abnormalities and weighed three times (Monday, Wednesday and Friday) a week.
Tumor volumes were expressed as mean absolute tumor volumes [in mm^3] and plotted over days of treatment.
The specific relative tumor volumes (T/C [%], i.e. the mean relative tumor volumes of groups of compound-treated tumors in % of the mean relative tumor volume of the vehicle-treated control tumors: T/C [%]=100*mean Vrel compound-treated/mean Vrel vehicle-treated) were determined on the day following the final day of treatment.
Experiments were usually terminated when vehicle control mice had to be killed because of large tumor sizes (1200 to 1700 mm^3).

[1] = Plasma levels of BIBX1382 of the treated mice; assay type: in vivo, nude mice; conditions: for concentration at 2 h / concentration at 6 h / concentration at 24 h: nude, mouse, plasma, oral, read-out: plasma level, mean; for concentration at 2 h: 2 h after last compound administration on day 46; for concentration at 6 h: 6 h after last compound administration on day 46; for concentration at 24 h: 24 h after last compound administration on day 46
Procedure: as §3, §4
With plasma levels of […] at 2 hours after oral compound administration a reduction of the growth rate to a T/C value of 62% was achieved.

SMILES: CN1CCC(Nc2ncc3ncnc(Nc4ccc(F)c(Cl)c4)c3n2)CC1 [BIBX1382, 4-((3-chloro-4-fluoro-phenyl)amino)-6-(1-methyl-4-piperidinyl-amino)-pyrimido(5,4d)pyrimidine]
- proliferation rate (3H-Thymidin incorporation) (SLU-1 cells): inhibited in their proliferation rate
- proliferation rate (3H-Thymidin incorporation) (SLU-4 cells): not affected
- effect on normal cell line at high concentrations (CRL-6234 cells; high concentrations): toxic effects at high concentrations
- proliferation at lower concentration (CRL-6234 cells; lower concentration): not inhibited
- proliferation (3H-Thymidin incorporation) (SH1b cells): inhibited in its proliferation time
- SLU-1 tumor growth (SLU-1 tumors; all tested doses, oral once daily, FIGS. 4 and 5): influenced SLU-1 tumor growth at all tested doses
- T/C values compared to the vehicle control group (standard T-test) (SLU-1 tumors; both dose groups (low and high)): significantly lower
- T/C (SLU-1 tumors; high dose group (Group 2), 50 → 70 → 100 mg/kg/day, after 100 mg/kg/day (day 31-46), day 47): 38%
- T/C (SLU-1 tumors; high dose group after 50 mg/kg/day (day 10-22)): 52%
- T/C (SLU-1 tumors; high dose group after 70 mg/kg/day (day 23-30)): 53%
- increase in tumor size at maximum (SLU-1 tumors; high dose group, 50 mg/kg/day, day 10-22, all ten tumors): 5-6 fold
- increase in tumor size (SLU-1 tumors; high dose group, 70 mg/kg/day, day 23-30): about 2 fold
- increase in tumor size (SLU-1 tumors; high dose group, 100 mg/kg/day, day 31-46): 1.5-1.9 fold
- increase in tumor size on average (SLU-1 tumors; high dose group, whole period of treatment): 20 fold
- T/C (SLU-1 tumors; low dose group (Group 1), 25 → 50 mg/kg/day, after 50 mg/kg/day (day 23-46), day 47): 62%
- T/C (SLU-1 tumors; low dose group after 25 mg/kg/day (day 10-22)): 78%
- increase in tumor size (SLU-1 tumors; low dose group, 25 mg/kg/day, day 10-22, 9 of 10 tumors): 8 fold
- tumor volume change (SLU-1 tumors; low dose group, 25 mg/kg/day, day 10-22, one of 10 tumors): did not change at all
- increase in tumor size (SLU-1 tumors; low dose group, 50 mg/kg/day, day 23-46, all 10 tumors): 3-6 fold
- increase in tumor size on average (SLU-1 tumors; low dose group, whole period of treatment (day 10-46)): 35 fold
- plasma level ([1]; 2 hours after oral compound administration, level giving T/C 38%): approximately 4000 mmol/l
- concentration at 2 h ([1]; 50 mg/kg): 3.17 µM
- concentration at 6 h ([1]; 50 mg/kg): 2.85 µM
- concentration at 24 h ([1]; 50 mg/kg): 0.394 µM
- concentration at 2 h ([1]; 100 mg/kg): 4.16 µM
- concentration at 6 h ([1]; 100 mg/kg): 4.09 µM
- concentration at 24 h ([1]; 100 mg/kg): 0.591 µM
